Format in all cases: in vivo
In one assay the test system is Leptosphaeria nodorum. The assay is described as follows: Wheat glume blotch (LEPTNO) disease control. The conditions noted are these: Parastagonospora nodorum, 24 h, High volume application, 1 Day Protectant, read-out: LEPTNO 1 DP disease control. The protocol:
(§1) Technical grades of materials were dissolved in acetone, which were then mixed with nine volumes of water containing 110 ppm Triton X-100. The fungicide solutions were applied onto wheat seedlings using an automated booth sprayer to run-off. All sprayed plants were allowed to air dry prior to further handling. All fungicides were evaluated using the aforementioned method for their activity vs. all target diseases. Wheat leaf blotch and brown rust activity were also evaluated using track spray applications, in which case the fungicides were formulated as EC formulations, containing 0.1% Trycol 5941 in the spray solutions. Wheat plants (variety Yuma) were grown from seed in a greenhouse in 50% mineral soil/50% soil-less Metro mix until the first leaf was fully emerged, with 7-10 seedlings per pot. These plants were inoculated with an aqueous spore suspension of Leptosphaeria nodorum 24 hr after fungicide treatments. After inoculation the plants were kept in 100% relative humidity (one day in a dark dew chamber followed by two days in a lighted dew chamber at 20° C.) to permit spores to germinate and infect the leaf. The plants were then transferred to a greenhouse set at 20° C. for disease to develop. Fungicide formulation, application and disease assessment followed the procedures as described in the Example A.

The test system of assay [1] is Glomerella lagenarium; Anamorph: Colletotrichum lagenarium. Description: Cucumber anthracnose (COLLLA) disease control. The conditions noted are these: Colletotrichum orbiculare, 24 h, 1 Day Protectant, high volume, read-out: Disease Control COLLLA 1 DP. The protocol: Technical grades of materials were dissolved in acetone, which were then mixed with nine volumes of water containing 110 ppm Triton X-100. The fungicide solutions were applied onto wheat seedlings using an automated booth sprayer to run-off. All sprayed plants were allowed to air dry prior to further handling. All fungicides were evaluated using the aforementioned method for their activity vs. all target diseases. Wheat leaf blotch and brown rust activity were also evaluated using track spray applications, in which case the fungicides were formulated as EC formulations, containing 0.1% Trycol 5941 in the spray solutions. Cucumber seedlings (variety Bush Pickle) were propagated in soil-less Metro mix, with each pot having one plant, and used in the test when 12 to 14 days old. Test plants were inoculated with an aqueous spore suspension of Colletotrichum lagenarium 24 hr after fungicide treatments. After inoculation the plants were kept in a dew room at 22° C. with 100% relative humidity for 48 hr to permit spores to germinate and infect the leaf. The plants were then transferred to a growth room set at 22° C. for disease to develop. Fungicide formulation, application and disease assessment on the sprayed leaves followed the procedures as described in the Example A.

The subject of another assay is Rhyncosporium secalis. The assay is described as follows: Barley scald (RHYNSE) disease control. The conditions noted are these: 24 h, High volume application, 1 Day Protectant, read-out: RHYNSE 1 DP disease control. The protocol: Technical grades of materials were dissolved in acetone, which were then mixed with nine volumes of water containing 110 ppm Triton X-100. The fungicide solutions were applied onto wheat seedlings using an automated booth sprayer to run-off. All sprayed plants were allowed to air dry prior to further handling. All fungicides were evaluated using the aforementioned method for their activity vs. all target diseases. Wheat leaf blotch and brown rust activity were also evaluated using track spray applications, in which case the fungicides were formulated as EC formulations, containing 0.1% Trycol 5941 in the spray solutions. Barley seedlings (variety Harrington) were propagated in soil-less Metro mix, with each pot having 8 to 12 plants, and used in the test when first leaf was fully emerged. Test plants were inoculated by an aqueous spore suspension of Rhyncosporium secalis 24 hr after fungicide treatments. After inoculation the plants were kept in a dew room at 20° C. with 100% relative humidity for 48 hr. The plants were then transferred to a greenhouse set at 20° C. for disease to develop. Fungicide formulation, application and disease assessment on the sprayed leaves followed the procedures as described in the Example A.

The test system of a further assay is Cercospora beticola. Description: Leaf spot of sugar beets (CERCBE) disease control. The conditions noted are these: 24 h, 1 Day Protectant, high volume, read-out: Disease Control CERCBE 1 DP. The protocol:
Technical grades of materials were dissolved in acetone, which were then mixed with nine volumes of water containing 110 ppm Triton X-100. The fungicide solutions were applied onto wheat seedlings using an automated booth sprayer to run-off. All sprayed plants were allowed to air dry prior to further handling. All fungicides were evaluated using the aforementioned method for their activity vs. all target diseases. Wheat leaf blotch and brown rust activity were also evaluated using track spray applications, in which case the fungicides were formulated as EC formulations, containing 0.1% Trycol 5941 in the spray solutions. Sugar beet plants (variety HH88) were grown in soil-less Metro mix and trimmed regularly to maintain a uniform plant size prior to test. Plants were inoculated with a spore suspension 24 hr after fungicide treatments. Inoculated plants were kept in a dew chamber at 22° C. for 48 hr then incubated in a greenhouse set at 24° C. under a clear plastic hood with bottom ventilation until disease symptoms were fully expressed. Fungicide formulation, application and disease assessment on the sprayed leaves followed the procedures as described in the Example A.

Assay [2] deals with Blumeria graminis f. sp. tritici; Synonym: Erysiphe graminis f. sp. tritici. The assay is described as follows: Wheat powdery mildew (ERYSGT) disease control. The conditions noted are these: 24 h, 1 Day Protectant, high volume, read-out: Disease Control ERYSGT 1 DP. On the procedure: as §1, with “inoculated by dusting” for “inoculated”, “infected stock plants” for “an aqueous spore suspension of Leptosphaeria nodorum”, “in” for “in 100% relative humidity (one day in a dark dew chamber followed by two days in a lighted dew chamber at 20° C.) to permit spores to germinate and infect the leaf. The plants were then transferred to”, “assessment on the sprayed leaves” for “assessment”

The next assay has as its system Alternaria solani. Description: Tomato early blight (ALTESO) disease control. The conditions noted are these: 24 h, 1 Day Protectant, high volume, read-out: Disease Control ALTESO 1 DP. On the procedure:
Technical grades of materials were dissolved in acetone, which were then mixed with nine volumes of water containing 110 ppm Triton X-100. The fungicide solutions were applied onto wheat seedlings using an automated booth sprayer to run-off. All sprayed plants were allowed to air dry prior to further handling. All fungicides were evaluated using the aforementioned method for their activity vs. all target diseases. Wheat leaf blotch and brown rust activity were also evaluated using track spray applications, in which case the fungicides were formulated as EC formulations, containing 0.1% Trycol 5941 in the spray solutions. Tomato plants (variety Outdoor girl) were propagated in soil-less Metro mix, with each pot having one plant, and used when 12 to 14 days old. Test plants were inoculated with an aqueous spore suspension of Alternaria solani 24 hr after fungicide treatments. After inoculation the plants were kept in 100% relative humidity (one day in a dark dew chamber followed by two to three days in a lighted dew chamber at 20° C.) to permit spores to germinate and infect the leaf. The plants were then transferred to a growth room at 22° C. for disease to develop. Fungicide formulation, application and disease assessment on the sprayed leaves followed the procedures as described in the Example A.

As for `COc1ccnc(C(=O)N[C@H]2CCC[C@H](Oc3ccccc3)[C@@H](Oc3ccccc3)[C@H](C)OC2=O)c1OCOC(C)=O` [F20], the pest or weed control at 100 ppm in the assay with Leptosphaeria nodorum was 80 to 100%; in assay [1], 80 to 100%; with Rhyncosporium secalis it was 80 to 100%; in the assay on Cercospora beticola it was 80 to 100%; in assay [2], 0 to 80%; in the assay with Alternaria solani, 0 to 80%.

Take `COc1ccnc(C(=O)N[C@H]2CCC[C@H](OCC(C)C)[C@@H](Oc3ccccc3)[C@H](C)OC2=O)c1OCOC(C)=O` [F26]: the pest or weed control at 100 ppm with Leptosphaeria nodorum was in the range of 80 to 100%; in assay [1] it was 80 to 100%; in the assay with Cercospora beticola, 80 to 100%; in assay [2] it was 0 to 80%.

Take `COc1ccnc(C(=O)N[C@H]2CCC[C@H](OCC(C)C)[C@@H](OCC(C)C)[C@H](C)OC2=O)c1OCOC(C)=O` [F29]: the pest or weed control at 100 ppm (in the assay with Leptosphaeria nodorum; in assay [1]; with Cercospora beticola; in assay [2]; in the assay on Alternaria solani) was 80 to 100% in each case.

Turning to `COc1ccnc(C(=O)N[C@H]2CCC[C@H](OCc3ccccc3)[C@@H](OCc3ccccc3)[C@H](C)OC2=O)c1OCOC(C)=O` [F30], the pest or weed control at 100 ppm in the assay with Leptosphaeria nodorum was 80 to 100%; in assay [1], 80 to 100%; in the assay on Cercospora beticola, 0 to 80%; in assay [2] it was less than 0%; in the assay on Alternaria solani, 0 to 80%.

`COc1ccnc(C(=O)N[C@H]2CCC[C@H](OCc3ccccc3)[C@@H](Oc3ccccc3)[C@H](C)OC2=O)c1OCOC(C)=O` [F31]: the pest or weed control at 100 ppm in the assay on Leptosphaeria nodorum fell in the range of 80 to 100%; in assay [1] it was 80 to 100%; with Cercospora beticola it was 80 to 100%; in assay [2], 0 to 80%; in the assay with Alternaria solani, 0 to 80%.

Consider `COc1ccnc(C(=O)N[C@H]2CCC[C@H](OCC(C)C)[C@@H](Oc3ccccc3)[C@H](C)OC2=O)c1OCOC(=O)C(C)C` [F34], for which the pest or weed control at 100 ppm lay within 80 to 100% in assay [1], 80 to 100% with Cercospora beticola, 0 to 80% in assay [2] and 0 to 80% in the assay with Alternaria solani.

As for `COc1ccnc(C(=O)N[C@H]2CCC[C@H](Oc3ccccc3)[C@@H](OCC(C)C)[C@H](C)OC2=O)c1OCOC(=O)C(C)C` [F35], the pest or weed control at 100 ppm in assay [1] fell in the range of 80 to 100%; in the assay on Cercospora beticola, 80 to 100%; in assay [2] it was 0 to 80%; with Alternaria solani, 80 to 100%.

As for `COc1ccnc(C(=O)N[C@H]2CCC[C@H](Oc3ccccc3)[C@@H](Oc3ccccc3)[C@H](C)OC2=O)c1OCOC(=O)C(C)C` [F36], the pest or weed control at 100 ppm in assay [1] is 80 to 100%; in the assay with Cercospora beticola, 80 to 100%; in assay [2], less than 0%; in the assay with Alternaria solani, 80 to 100%.

As for `COc1ccnc(C(=O)N[C@H]2CCC[C@H](OCC(C)C)[C@@H](OCC(C)C)[C@H](C)OC2=O)c1OCOC(=O)C(C)C` [F37], the pest or weed control at 100 ppm was in the range of 80 to 100% in assay [1], 80 to 100% with Cercospora beticola, 0 to 80% in assay [2] and 80 to 100% with Alternaria solani.

As to `COc1ccnc(C(=O)N[C@H]2CCC[C@H](OCC(C)C)[C@@H](OC3CCCC3)[C@H](C)OC2=O)c1OCOC(=O)C(C)C` [F38], the pest or weed control at 100 ppm in assay [1] is 80 to 100%; in the assay on Cercospora beticola, 80 to 100%; in assay [2], 0 to 80%; in the assay on Alternaria solani, 80 to 100%.

For the compound `COc1ccnc(C(=O)N[C@H]2CCC[C@H](OCC(C)C)[C@@H](OC)[C@H](C)OC2=O)c1OCOC(C)=O` [F251], the pest or weed control at 100 ppm lay in the range of 80 to 100% with Leptosphaeria nodorum; 80 to 100% in assay [1]; 0 to 80% in the assay with Rhyncosporium secalis; 0 to 80% with Cercospora beticola; 0 to 80% with Alternaria solani.

Turning to `COc1ccnc(C(=O)N[C@H]2CCC[C@H](Oc3ccccc3)[C@@H](OC)[C@H](C)OC2=O)c1OCOC(C)=O` [F252], the pest or weed control at 100 ppm was 80 to 100% in the assay on Leptosphaeria nodorum; 80 to 100% in assay [1]; 80 to 100% with Rhyncosporium secalis; 0 to 80% with Cercospora beticola; 0 to 80% with Alternaria solani.

Turning to `C=C(C)CO[C@H]1CCC[C@H](NC(=O)c2nccc(OC)c2OCOC(=O)C(C)C)C(=O)O[C@@H](C)[C@@H]1OC` [F253], the pest or weed control at 100 ppm is 80 to 100% in the assay on Leptosphaeria nodorum; 80 to 100% in assay [1]; 0 to 80% in the assay on Rhyncosporium secalis; less than 0% in the assay on Cercospora beticola; 0 to 80% in the assay with Alternaria solani.

`COc1ccnc(C(=O)N[C@H]2CCC[C@H](OCC(C)C)[C@@H](OC)[C@H](C)OC2=O)c1OCOC(=O)C(C)C` [F254]: the pest or weed control at 100 ppm in the assay with Leptosphaeria nodorum was in the range of 80 to 100%; in assay [1], 80 to 100%; in the assay with Rhyncosporium secalis, 80 to 100%; with Cercospora beticola it was 0 to 80%; in the assay on Alternaria solani it was 0 to 80%.

`COc1ccnc(C(=O)N[C@H]2CCC[C@H](Oc3ccccc3)[C@@H](OC)[C@H](C)OC2=O)c1OCOC(=O)C(C)C` [F255]: the pest or weed control at 100 ppm with Leptosphaeria nodorum fell in the range of 80 to 100%; in assay [1], 80 to 100%; in the assay on Rhyncosporium secalis, 80 to 100%; with Cercospora beticola it was 0 to 80%; in the assay on Alternaria solani, 0 to 80%.
